Values quoted from earlier work, collected in patent US20260284189A1, “TREATMENT OF NON-SMALL CELL LUNG CANCER” (ASTRAZENECA AB, priority 2023, published 2026).

System: xenograft model
Details: via a T-cell dependent mechanism; cited from earlier work

Substance: Durvalumab: antibody that selectively binds PD-L1 and blocks binding of PD-L1 to PD-1 and CD80; arm given with platinum-based chemotherapy before surgery
- tumor growth in a xenograft model: inhibits tumor growth in a xenograft model
